Source: ChEMBL document CHEMBL4665624, “Synthesis of 5-(4-(1H-phenanthro[9,10-d]imidazol-2-yl)benzylidene)thiazolidine-2,4-dione as promising DNA and serum albumin-binding agents and evaluation of antitumor activity” (Eur J Med Chem, 2019)
Calls of active or inactive are those of the source. No cut-off for these calls is given here.

Columns and labels:
EKVX = assay: Antitumor activity against human EKVX cells assessed as cell growth inhibition at 10 uM incubated for 48 hrs by sulforhodamine B assay; assay type: functional; settings: read-out: GI
MOLT-4 = assay: Antitumor activity against human MOLT4 cells assessed as cell growth inhibition at 10 uM incubated for 48 hrs by sulforhodamine B assay; assay type: functional; settings: read-out: GI
Calf thymus DNA [1] = assay: Binding affinity to calf thymus DNA assessed as Stern-Volmer quenching constant by ethidium bromide competitive displacement assay; assay type: nucleic-acid assay; settings: Bos taurus
HEK293 [2] = assay: Cytotoxicity against human HEK293 assessed as reduction in cell viability at 1 uM after 48 hrs by MTT assay; assay type: cell-based; settings: hek293, 48 h
SNB-19 = assay: Antitumor activity against human SNB-19 cells assessed as cell growth inhibition at 10 uM incubated for 48 hrs by sulforhodamine B assay; assay type: functional; settings: read-out: GI
NCI-H226 = assay: Antitumor activity against human NCI-H226 assessed as cell growth inhibition at 10 uM incubated for 48 hrs by sulforhodamine B assay; assay type: functional; settings: read-out: GI
Calf thymus DNA [3] = assay: Binding affinity to calf thymus DNA assessed as increase in fluorescence emission intensity at 468 nm at 20 uM by fluorescence emission spectroscopic analysis; assay type: nucleic-acid assay; settings: Bos taurus
Calf thymus DNA [4] = assay: Binding affinity to calf thymus DNA (unknown origin) assessed as binding constant by ethidium bromide competitive displacement assay; assay type: nucleic-acid assay; settings: Bos taurus
786-0 = assay: Antitumor activity against human 786-0 cells assessed as cell growth inhibition at 10 uM incubated for 48 hrs by sulforhodamine B assay; assay type: functional; settings: read-out: GI
DNA [5] = assay: Binding affinity to human DNA in blood assessed as quenching constant by fluorescence emission spectrum analysis; assay type: tissue-based
HEK293 [6] = assay: Cytotoxicity against human HEK293 assessed as reduction in cell viability at 0.1 uM after 48 hrs by MTT assay; assay type: cell-based; settings: hek293, 48 h
HT-29 = assay: Antitumor activity against human HT-29 cells assessed as cell growth inhibition at 10 uM incubated for 48 hrs by sulforhodamine B assay; assay type: functional; settings: read-out: GI
HL-60(TB) = assay: Antitumor activity against human HL-60(TB) cells assessed as cell growth inhibition at 10 uM incubated for 48 hrs by sulforhodamine B assay; assay type: functional; settings: read-out: GI
NCI/ADR-RES = assay: Antitumor activity against human NCI/ADR-RES cells assessed as cell growth inhibition at 10 uM incubated for 48 hrs by sulforhodamine B assay; assay type: functional; settings: read-out: GI
Albumin [7] = target: T1, Albumin (Bos taurus, UniProt P02769); assay: Binding affinity to bovine serum albumin assessed as spontaneous interaction by measuring change in gibbs free energy at 308K by thermodynamic based analysis; assay type: ADME, cell-free; settings: cattle
T1 sequence (P02769 whole entry): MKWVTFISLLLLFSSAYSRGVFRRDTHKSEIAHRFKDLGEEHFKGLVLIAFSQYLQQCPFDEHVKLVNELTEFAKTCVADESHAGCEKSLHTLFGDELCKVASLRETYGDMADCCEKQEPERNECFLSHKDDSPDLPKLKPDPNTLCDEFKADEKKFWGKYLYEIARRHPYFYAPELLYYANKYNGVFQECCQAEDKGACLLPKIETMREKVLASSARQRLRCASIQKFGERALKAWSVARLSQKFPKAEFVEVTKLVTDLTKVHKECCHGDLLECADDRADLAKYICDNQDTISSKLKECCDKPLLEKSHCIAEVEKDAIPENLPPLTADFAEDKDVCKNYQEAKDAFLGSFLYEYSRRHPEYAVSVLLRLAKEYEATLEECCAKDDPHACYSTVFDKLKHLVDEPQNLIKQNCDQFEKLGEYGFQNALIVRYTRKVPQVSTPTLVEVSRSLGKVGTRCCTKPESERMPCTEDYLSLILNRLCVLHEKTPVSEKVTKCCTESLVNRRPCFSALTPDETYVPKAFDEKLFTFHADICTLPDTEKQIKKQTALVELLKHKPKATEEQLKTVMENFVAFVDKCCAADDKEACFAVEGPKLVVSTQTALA

RXF 393 = assay: Antitumor activity against human RXF 393 cells assessed as cell growth inhibition at 10 uM incubated for 48 hrs by sulforhodamine B assay; assay type: functional; settings: read-out: GI
Albumin [8] = target: T1, Albumin; assay: Binding affinity to bovine serum albumin assessed as binding constant at 308K by fluorescence emission spectrum analysis; assay type: ADME, cell-free; settings: cattle
A549 = assay: Cytotoxicity against human A549/ATCC assessed as reduction in cell viability at 1 uM after 48 hrs by MTT assay; assay type: functional
Albumin [9] = target: T1, Albumin; assay: Binding affinity to bovine serum albumin assessed as binding constant by UV-vis absorption spectral titration analysis based Benesi-Hildebrand equation analysis; assay type: ADME, cell-free; settings: cattle
Albumin [10] = target: T1, Albumin; assay: Binding affinity to bovine serum albumin assessed as quenching constant at 298K by fluorescence emission spectrum analysis; assay type: ADME, cell-free; settings: cattle
Albumin [11] = target: T1, Albumin; assay: Binding affinity to bovine serum albumin assessed as Stern-Volmer quenching constant at 308K by fluorescence emission spectrum analysis; assay type: ADME, cell-free; settings: cattle
Albumin [12] = target: Albumin (Homo sapiens, UniProt P02768); assay: Binding affinity to human serum albumin assessed as binding constant by UV-Vis absorption spectroscopy; assay type: ADME, cell-free
Chain of Albumin (Homo sapiens, UniProt P02768) (P02768 whole entry): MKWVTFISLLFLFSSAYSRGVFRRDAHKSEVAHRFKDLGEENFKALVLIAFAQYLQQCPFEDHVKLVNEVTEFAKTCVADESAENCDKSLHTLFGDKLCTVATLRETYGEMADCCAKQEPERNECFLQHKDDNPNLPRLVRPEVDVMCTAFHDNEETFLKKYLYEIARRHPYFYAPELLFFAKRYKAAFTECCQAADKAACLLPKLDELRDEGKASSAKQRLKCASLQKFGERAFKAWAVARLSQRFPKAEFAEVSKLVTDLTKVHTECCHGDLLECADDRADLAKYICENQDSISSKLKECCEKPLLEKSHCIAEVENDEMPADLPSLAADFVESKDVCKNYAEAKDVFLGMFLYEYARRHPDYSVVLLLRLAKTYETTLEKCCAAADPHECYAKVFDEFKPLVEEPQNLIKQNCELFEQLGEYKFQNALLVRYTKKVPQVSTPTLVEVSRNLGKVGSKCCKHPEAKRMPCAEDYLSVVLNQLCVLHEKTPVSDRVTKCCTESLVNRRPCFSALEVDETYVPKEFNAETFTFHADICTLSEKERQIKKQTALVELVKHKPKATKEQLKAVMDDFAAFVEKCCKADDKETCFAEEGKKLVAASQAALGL

OVCAR-8 = assay: Antitumor activity against human OVCAR-8 cells assessed as cell growth inhibition at 10 uM incubated for 48 hrs by sulforhodamine B assay; assay type: functional; settings: read-out: GI
CCRF-CEM = assay: Antitumor activity against human CCRF-CEM cells assessed as cell growth inhibition at 10 uM incubated for 48 hrs by sulforhodamine B assay; assay type: functional; settings: read-out: GI
M14 = assay: Antitumor activity against human M14 cells assessed as cell growth inhibition at 10 uM incubated for 48 hrs by sulforhodamine B assay; assay type: functional; settings: read-out: GI
NCI-H460 = assay: Antitumor activity against human NCI-H460 assessed as cell growth inhibition at 10 uM incubated for 48 hrs by sulforhodamine B assay; assay type: functional; settings: read-out: GI
SF-295 = assay: Antitumor activity against human SF295 cells assessed as cell growth inhibition at 10 uM incubated for 48 hrs by sulforhodamine B assay; assay type: functional; settings: read-out: GI
Calf thymus DNA [13] = assay: Binding affinity to calf thymus DNA assessed as DNA intercalation by measuring increase in intensity of CD band at 281 nm at 1 uM by CD spectroscopy; assay type: nucleic-acid assay; settings: Bos taurus
COLO 205 = assay: Antitumor activity against human COLO205 cells assessed as cell growth inhibition at 10 uM incubated for 48 hrs by sulforhodamine B assay; assay type: functional; settings: read-out: GI
DNA [14] = assay: Binding affinity to human DNA in blood assessed as binding constant by fluorescence emission spectrum analysis; assay type: tissue-based
Calf thymus DNA [15] = assay: Binding affinity to minor groove of calf thymus DNA assessed as ICD band intensity between 350 and 400 nm at 1 uM by CD spectroscopy; assay type: nucleic-acid assay; settings: Bos taurus
Albumin [16] = target: T1, Albumin; assay: Binding affinity to bovine serum albumin assessed as appearance of new fluorescence band at 510 nm at 0-12 uM by fluorescence emission spectrum analysis; assay type: ADME, cell-free; settings: cattle
Calf thymus DNA [17] = assay: Binding affinity to calf thymus DNA assessed as DNA intercalation by measuring increase in melting temperature of DNA at 10 uM by thermal denaturation based spectrophotometric analysis; assay type: nucleic-acid assay; settings: Bos taurus
Albumin [18] = target: T1, Albumin; assay: Binding affinity to bovine serum albumin assessed as decrease in fluorescence emission intensity at 350 nm at 0-12 uM by fluorescence emission spectrum analysis; assay type: ADME, cell-free; settings: cattle, 0.35 µM
U-251 = assay: Antitumor activity against human U251 cells assessed as cell growth inhibition at 10 uM incubated for 48 hrs by sulforhodamine B assay; assay type: functional; settings: read-out: GI
Albumin [19] = target: T1, Albumin; assay: Binding affinity to bovine serum albumin assessed as formation of new absorption band at 400 nm at 0-10 uM by UV-vis absorption spectral titration analysis; assay type: ADME, cell-free; settings: cattle
A498 = assay: Antitumor activity against human A498 cells assessed as cell growth inhibition at 10 uM incubated for 48 hrs by sulforhodamine B assay; assay type: functional; settings: read-out: GI
HCC 2998 = assay: Antitumor activity against human HCC2998 cells assessed as cell growth inhibition at 10 uM incubated for 48 hrs by sulforhodamine B assay; assay type: functional; settings: read-out: GI
SN12C = assay: Antitumor activity against human SN12C cells assessed as cell growth inhibition at 10 uM incubated for 48 hrs by sulforhodamine B assay; assay type: functional; settings: read-out: GI
MDA-MB-231 = assay: Antitumor activity against human MDA-MB-231/ATCC cells assessed as cell growth inhibition at 10 uM incubated for 48 hrs by sulforhodamine B assay; assay type: functional; settings: read-out: GI
HEK293 [20] = assay: Cytotoxicity against human HEK293 assessed as reduction in cell viability at 100 uM after 48 hrs by MTT assay; assay type: cell-based; settings: hek293, 48 h
Calf thymus DNA [21] = assay: Binding affinity to calf thymus DNA assessed as DNA intercalation by measuring decrease in intensity of CD band at 250 nm at 1 uM by CD spectroscopy; assay type: nucleic-acid assay; settings: Bos taurus
Albumin [22] = target: T1, Albumin; assay: Binding affinity to bovine serum albumin assessed as spontaneous interaction by measuring change in gibbs free energy at 318K by thermodynamic based analysis; assay type: ADME, cell-free; settings: cattle

## O=C1NC(=O)/C(=C/c2ccc(-c3nc4c5ccccc5c5ccccc5c4[nH]3)cc2)S1
EKVX
  inhibition of growth at 10 µM: 11.5%
MOLT-4
  inhibition of growth at 10 µM: 47.1%
Calf thymus DNA [1]
  KSV: 6.53 10^4/M
HEK293 [2]
  Activity: 6%
SNB-19
  inhibition of growth at 10 µM: 18.1%
NCI-H226
  inhibition of growth at 10 µM: < 10%
Calf thymus DNA [3]
  Activity: Active
Calf thymus DNA [4]
  Kb: 1 10^5/M
786-0
  inhibition of growth at 10 µM: 48%
DNA [5]
  Kq: 3.46 10^11/M/s
HEK293 [6]
  Activity: 5%
HT-29
  inhibition of growth at 10 µM: 24%
HL-60(TB)
  inhibition of growth at 10 µM: 57.7%
NCI/ADR-RES
  inhibition of growth at 10 µM: < 10%
Albumin [7]
  deltaG: -9.21 kcal/mol
RXF 393
  inhibition of growth at 10 µM: 19.1%
Albumin [8]
  Kb: 3.56 10^6/M
A549
  Activity: 75%
Albumin [9]
  Kb: 6.57 10^4/M
Albumin [10]
  Kq: 8.42 10^13/M/sec
Albumin [11]
  KSV: 8.15 10^5/M
Albumin [12]
  Kb: 9.35 10^4/M
OVCAR-8
  inhibition of growth at 10 µM: 21.7%
CCRF-CEM
  inhibition of growth at 10 µM: 65.2%
M14
  inhibition of growth at 10 µM: 47.9%
NCI-H460
  inhibition of growth at 10 µM: 19.7%
SF-295
  inhibition of growth at 10 µM: 16.3%
Calf thymus DNA [13]
  Activity: Active
COLO 205
  inhibition of growth at 10 µM: < 10%
DNA [14]
  Kb: 7.09 10^5/M
Calf thymus DNA [15]
  Activity: inactive
Albumin [16]
  Activity: Active
Calf thymus DNA [17]
  ΔTm: 7.1 °C
Albumin [18]
  Activity: Active
U-251
  inhibition of growth at 10 µM: 30.3%
Albumin [19]
  Activity: Active
A498
  inhibition of growth at 10 µM: 93%
HCC 2998
  inhibition of growth at 10 µM: < 10%
SN12C
  inhibition of growth at 10 µM: < 10%
MDA-MB-231
  inhibition of growth at 10 µM: 15.6%
HEK293 [20]
  Activity: 15%
Calf thymus DNA [21]
  Activity: Active
Albumin [22]
  deltaG: -9.41 kcal/mol
